Experimental data published in paper PMC10447463, “Data-mining unveils structure–property–activity correlation of viral infectivity enhancing self-assembling peptides” (Nature Communications, 2023).
Where two headings read alike, the source gives them in different places.

How the values were obtained:
[1] = tested on: HIV-1 infection of TZM-bl cells; assay: HIV-1 infectivity enhancement assay, β-galactosidase luminescence; type: cell-based; settings: for Rel-EFC: infection relative to EF-C (QCKIKQIINMWQ = 1); for Log10 Infection Rel EFC: log10 of infection relative to EF-C; for Log Infectivity: Fig. S7 panel A (plotted against β-sheet content), Log10 infection relative to EF-C, asymmetric std dev errors; for Log Infectivity / Abs. Inf.: TZM-bl cells; for Log10 Infection Rel EF-C: HIV-1 infection of TZM-bl cells; for Log10 of Rel to EFC (Feb2021): Log10 of infection relative to EF-C; for Abs. Inf.: absolute HIV-1 infection signal, β-galactosidase luminescence
[2] = type: physicochemical; settings: for ThT Cat. / ThT-Fluorescence (categorical): ThT-active if fluorescence at least twice the control
Procedure, shortened: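 Fibrils (1 mg/mL solution) were mixed with 50 µM ThT in PBS for 15 min at RT, and fluorescence was read at λex 440/λem 488 nm against a PBS blank, as a triplicate mean ± SD. Zeta potential came from electrophoretic mobility (Smoluchowski) after 1 d aggregation at 1 mg/mL in PBS pH 7.4, diluted into 1 mM KCl.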

[3] = β-sheet content by ATR-FT-IR; type: physicochemical; settings: for b -sheet / %: Fig. S7 panel A, β-sheet content by ATR-FT-IR
Experimental: For ATR FT–IR spectroscopy measurements, 200 µL of the respective 1 mg/mL PNF solution was lyophilized and the resulting powder used for measurement. All spectra were recorded on a Bruker Tensor 27 spectrometer with a diamond crystal as ATR element (PIKE MiracleTM, spectral resolution 2 cm^-1). Every sample was measured with 64 scans. Data were analyzed with OriginLab software and calculation of β–sheet content was conducted according to a previous report. TEM. For TEM measurements 5 µL of PNF fibrils (1 mg/mL) were placed on copper grids coated with carbon and formvar layer (300 mesh, Plano GmbH). After 10 min incubation time, the grids were staining with 4% uranyl acetate solution for 2.5 min and washed with water. Measurements were performed on a Jeol 1400 electron microscope with 120 kV acceleration voltage. CR Assay. For the determination of the amount of peptide monomer converting into nanostructures the amine reactive dye fluorescamine was used analogous to a previous reported protocol. Briefly, 100 µL of the preformed PNF solution was centrifuged in a Vivaspin 500 tube (3 kDa MWCO) to separate fibers from free peptide monomer (16200 x g, 4 °C, 45 min). The filtrate and 100 μL of the non-filtered PNF sample were lyophilized and dissolved in 30 μL DMSO. 10 μL of the filtrate and non-filtered DMSO samples were submitted in a black UV Star® 384 microliter well–plates (Greiner bio–one) and 3 μL of the fluorescamine solution (10 mg/mL, DMSO) was added to measure the fluorescence enhancement. After 20 min of incubation at RT, fluorescence was recorded on an Infinite® M1000 PRO microplate reader (Tecan) at λem = 470 nm upon excitation at λex = 365 nm with 10 nm bandwidths and multiple reads per well (3×3). Measurements were repeated in triplicates and averaged with standard deviation. All values were calculated as n-fold fluorescence enhancement (DMSO only as a reference was set to 1). The conversion rate CR was defined according to the equation Eq. (3).3 CR=100−100×fluorescenceintensityfiltrate/fluorescenceintensityoriginal[%]

[4] = Log10 of infection rate relative to EF-C, Figure 3A source data
[5] = infection rate relative to EF-C, log10, data of Figure 2D
[6] = infection rate relative to EF-C, log10, source data of Figure 2C
[7] = ThT fluorescence category, 1 if Rel. ThT >2
[8] = second listing, peptides with TEM 2cat 0

Row | Substance | Rel-EFC ([1]; 1.3 µM peptide) | Log10 Infection Rel EFC ([1]; 1.3 µM peptide) | Log Infectivity [1] | Log10 Infection Rel EF-C [1, 4] | Log10 Infection Rel EF-C [1, 5] | Log10 Infection Rel EF-C [1, 6] | Log10 of Rel to EFC (Feb2021) ([1]; all peptides of FigS16) | Abs. Inf. [1] | Tht category (> 2 to blank = +) ([2]; Fig S10 panel D) | ThT Cat, ([2]; ThT category, 1 if Rel. ThT >2) | ThT Cat. ([2]; ThT category, 1 if Rel. ThT >2) | ThT Cat. / ThT-Fluorescence (categorical) [2] | b -sheet / % [3] [%] | Tht category (> 2 to blank = +) ([2]; FigS12 panel A) | ThT Cat, ([2]; FigS12 panel B) | ThT Cat. [2, 7] | further results
1 | KFKFQFW | 0,16 | -0,79 | -0.7899 | -0.79 | -0.7899 | -0.7899 | -0.79 | 4953 | 1 (ThT. Cat is 1, if Rel. ThT >2) | 1 (ThT. Cat is 1, if Rel. ThT >2) | 1 (ThT. Cat is 1, if Rel. ThT >2) | 1 (ThT. Cat is 1, if Rel. ThT >2) | 35.45 |  |  |  | 
2 | KFKQFFINMWQ | 0,92 | -0,04 | -0.03603 | -0.04 | -0.03603 | -0.03603 | -0.04 | 14953.33333 | 0 (ThT-inactive (N-Fold <2)) | 0 (ThT-inactive (N-Fold <2)) | 0 (ThT-inactive (N-Fold <2)) | 0 (ThT-inactive (N-Fold <2)) | 38.37 |  |  |  | 
3 | KIEIQINM | 0,03 | -1,46 | -1.458 | -1.46 | -1.458 | -1.458 |  |  | 0 (ThT-inactive (N-Fold <2)) | 0 (ThT-inactive (N-Fold <2)) |  | 0 (ThT-inactive (N-Fold <2)) | 42.99 | 0 (ThT-inactive (N-Fold <2)) | 0 (ThT-inactive (N-Fold <2)) | 0 (ThT-inactive (N-Fold <2)) | 
4 | KIKIKIKI | 0,03 | -1,49 | -1.487 | -1.49 | -1.487 | -1.487 |  |  | 1 (ThT. Cat is 1, if Rel. ThT >2) | 1 (ThT. Cat is 1, if Rel. ThT >2) |  | 1 (ThT. Cat is 1, if Rel. ThT >2) | 40.46 | 1 (ThT. Cat is 1, if Rel. ThT >2) | 1 (ThT. Cat is 1, if Rel. ThT >2) | 1 (ThT. Cat is 1, if Rel. ThT >2) | 
5 | KIKIKIKIWWWW | 0,59 | -0,23 | -0.2301 | -0.23 | -0.2301 | -0.2301 | -0.23 |  | 1 (ThT. Cat is 1, if Rel. ThT >2) | 1 (ThT. Cat is 1, if Rel. ThT >2) |  | 1 (ThT. Cat is 1, if Rel. ThT >2) | 37.79 |  |  | 1 (ThT. Cat is 1, if Rel. ThT >2) | Log10 of Rel to EFC (Feb2021) [1, 8]: -0.23
6 | KIKIKIQINMWQ | 0,79 | -0,1 | -0.1048 | -0.1 | -0.1048 | -0.1048 | -0.1 | 20353.33333 | 0 (ThT-inactive (N-Fold <2)) | 0 (ThT-inactive (N-Fold <2)) | 0 (ThT-inactive (N-Fold <2)) | 0 (ThT-inactive (N-Fold <2)) | 39.61 |  |  |  | 
7 | KIKIQII | 0,02 | -1,73 | -1.729 | -1.73 | -1.729 | -1.729 |  |  | 0 (ThT-inactive (N-Fold <2)) | 0 (ThT-inactive (N-Fold <2)) |  | 0 (ThT-inactive (N-Fold <2)) | 44.64 | 0 (ThT-inactive (N-Fold <2)) | 0 (ThT-inactive (N-Fold <2)) | 0 (ThT-inactive (N-Fold <2)) | 
8 | KIKIQIMQWN | 0,72 | -0,15 | -0.1454 | -0.15 | -0.1454 | -0.1454 | -0.15 | 11623.33333 | 0 (ThT-inactive (N-Fold <2)) | 0 (ThT-inactive (N-Fold <2)) | 0 (ThT-inactive (N-Fold <2)) | 0 (ThT-inactive (N-Fold <2)) | 40.38 |  |  |  | 
9 | KIKIQIMWNQ | 0,56 | -0,25 | -0.2495 | -0.25 | -0.2495 | -0.2495 | -0.25 | 9147 | 0 (ThT-inactive (N-Fold <2)) | 0 (ThT-inactive (N-Fold <2)) | 0 (ThT-inactive (N-Fold <2)) | 0 (ThT-inactive (N-Fold <2)) | 41.4 |  |  |  | 
10 | KIKIQINMWQRGD | 0,01 | -1,92 | -1.917 | -1.92 | -1.917 | -1.917 |  | 196.7 | 0 (ThT-inactive (N-Fold <2)) | 0 (ThT-inactive (N-Fold <2)) | 0 (ThT-inactive (N-Fold <2)) | 0 (ThT-inactive (N-Fold <2)) | 47.72 | 0 (ThT-inactive (N-Fold <2)) | 0 (ThT-inactive (N-Fold <2)) |  | Inf. rel. EF-C ([1]; HIV-1 infection relative to EF-C, Fig 23 plot, panels A and B, mean of 3 values): 0.008366; Inf. rel. EF-C ([1]; HIV-1 infection relative to EF-C, Fig 23 plot, single data point, replicate 1): 0.00461; Inf. rel. EF-C ([1]; HIV-1 infection relative to EF-C, Fig 23 plot, single data point, replicate 2): 0.009457; Inf. rel. EF-C ([1]; HIV-1 infection relative to EF-C, Fig 23 plot, single data point, replicate 3): 0.01103; Abs. Inf. / RLU s-1 ([1]; absolute infection rate, peptide 1.3 µM on cells, virus preincubated 10 min with fibrils, read 3 days post infection, mean of triplicate): 197 RLU s-1; Inf. rel. EF-C ([1]; n-fold infection vs virus only, relative to that of EF-C, 1.3 µM peptide): 0.01; Rel. ThT ([2]; n-fold ThT fluorescence vs control (PBS, 10% DMSO), 4 µL 1 mg/mL fibrils + 20 µL 50 µM ThT, 15 min RT, ex 440 / em 488 nm, triplicate): 1.5; ß-sheet / % ([3]; ATR-FT-IR of lyophilised 1 mg/mL PNF solution, peak integral ratio 1625-1635 cm-1, measured once): 48%
11 | KIKIQINMWWQ | 3,21 | 0,51 | 0.5063 | 0.51 | 0.5063 | 0.5063 | 0.51 | 17976.66667 | 0 (ThT-inactive (N-Fold <2)) | 0 (ThT-inactive (N-Fold <2)) | 0 (ThT-inactive (N-Fold <2)) | 0 (ThT-inactive (N-Fold <2)) | 50.48 |  |  |  | Log10 of Rel to EFC (Feb2021) [1, 8]: 0.51; beta sheet ([3]; peptides with TEM 2cat 0): 50
